These results are taken from patent US10519504B2, “Methods for treatment of oncological disorders using epimetabolic shifters, multidimensional intracellular molecules, or environmental influencers” (Berg LLC, priority 2009, dated 2019).

Structures are written as SMILES.

The subject of assay [1] is Hif1 alpha. The assay is described as follows: Western blot, Hif1 alpha levels. It is filed as cell-based, human. As for the experimental part:
The Actin blots were stripped by incubating for 30 minutes with methanol, followed by two 10 minute washes with TBS-T, then 30 minutes of incubation with Stripping buffer at 50 deg C., and followed by two washes with 100 ml or more of TBS-T for 30′ each. The blots were scanned in laser scanner to check for complete stripping. The blots were activated with methanol for 5 seconds, washed with water for 5 minutes, and TBST for 15 minutes. The blots were blocked for 1 hour with 5% blocking reagent in TBS-T at room temperature and then washed 3 times with TBS-T (1X−15′; 2X5′ each) and probed with the primary antibody for Hif 1 alpha, Caspase 3 or PDHB in 5% BSA (at 1:200 by incubation overnight at 4 deg C. with gentle shaking. The primary antibody for Hif 1 alpha (Abcam ab2185; antirabbit) was at 1:500 dilution in 5% BSA. The primary antibody for Caspase 3 (Santacruz sc7272; antirabbit) was at 1:200 dilution in 5% BSA. The primary antibody for Pyruvate Dehydrogenase beta (PDHB) (Novus Biologicals H00005162-M03; antimouse) was at 1:500 dilution in 5% BSA. After incubation with primary antibodies, the membranes were washed 3 times with TBS-T (1X−15′; 2X5′ each) and probed with the secondary antibody (PDHB antimouse; Hif 1a and Caspase 3 antirabbit; 1:10,000 dilution) for 1 h at room temperature. […]

For assay [2], the system named is Isocitrate Dehydrogenase-1 (IDH-1). Nature of the assay: Western blot, IDH1 levels. It is filed as cell-based, human. The protocol:
The whole cell pellets were resuspended one at a time in 1 mL of C7 buffer and transferred to labeled 15 mL tubes. The samples were then sonicated in the cold room on ice using 6 sonic pulses with the setting at #14. The samples were spun for a short time to 2500 g after sonication and the samples transferred to 2 ml tubes. The pH was verified of each sample (pH should be 9.0) using the foam remaining in the […] sample tubes.
Alkylation and reduction of samples was performed for each sample by adding 10 ul of 1M acrylamide, 25 ul of tributylphoshene and incubation for 90 mins with intermittent mixing. After incubation, 10 ul of 1M DTT was added and the tubes were spun at 20,000 g at 20 deg C. for 10 minutes and transferred the supernatant to labeled Amicon Ultra centrifugal filter units with a 10 k cut off (Millipore catalog #UFC 801024). The samples were spun for 15 minutes at 2500 g in 2 intervals. The conductivity was measured for Chaps alone as well as the samples using a conductivity meter. If the conductivity of samples is high, then 1 ml of chaps was added for buffer exchange and spun again at 2500 g until the volume was down to 250 ul. […]
The samples were processed as per standard protocols as described above and the amount of protein in each of the samples was determined by Bradford assay. […]
(Immunoblotting shows a protein as a band on a membrane.)

With `COC1=C(OC)C(=O)C(C/C=C(\C)CC/C=C(\C)CC/C=C(\C)CC/C=C(\C)CC/C=C(\C)CC/C=C(\C)CC/C=C(\C)CC/C=C(\C)CC/C=C(\C)CCC=C(C)C)=C(C)C1=O` [Q10, Coenzyme Q10], the “Hif1 alpha protein levels” value in assay [1] (mitochondrial preparations of cancer cells) is listed as “decreased Hif1 alpha protein levels”. The Hif1a lower band entry in assay [1] (whole cell lysates of normal cells) is “showed a decrease as well”. The “expression of IDH1” value in assay [2] (HDFa, nFIB, HASMC) is given as “did not demonstrate significant changes in the expression pattern”; in assay [2] (cancer cell lines MCF-7, SKMEL28, HepG2, PaCa-2), “increased expression of IDH1”.
